pIC50: −log10 of the molar value.

The test has as its target BRD4 protein (Homo sapiens, UniProt O60885). Briefly: FRET assay, half maximal inhibitory concentration (IC50). The format is binding. As to conditions: BRD4 protein 50 nM, Biotin-H4KAc4 peptide 12.5 nM; A Further List of Classification. The method, boiled down:
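Acetylated histone H4 peptide binding (biotin-H4KAc4, 12.5 nM final) to BRD4 (50 nM final) detected by TR-FRET between streptavidin cryptate (2.4 nM) and GST-XL665 antibody (10 nM) in KF/BSA. Buffer: HEPES pH 7.5, NaCl, CHAPS. Compound dilutions from 50 μM in 12.5% DMSO were preincubated with protein for 30 min. Variable-slope IC50.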
On to `Cc1cc(O)nc2ccc(NC(=O)c3cc(S(=O)(=O)N(C)C)ccc3N3CCCCC3c3ccccc3)cc12` (centres unmarked) [S67, 5-(dimethylsulfamoyl)-N-(2-hydroxy-4-methyl-6-quinolyl)-2-(2-phenyl-1-piperidyl)benzamide], for which the negative-log IC50 (pIC50) was over 6.70.
Compound `CCN(CC)S(=O)(=O)c1ccc(N2CCCC2)c(C(=O)Nc2ccc3nc(O)cc(C)c3c2)c1` [S71, 5-(diethylsulfamoyl)-N-(2-hydroxy-4-methyl-6-quinolyl)-2-pyrrolidin-1-yl-benzamide] showed a pIC50 of 6.00 to 6.30.
In turn, `CCN(CC)S(=O)(=O)c1ccc(N2CCCCC2)c(C(=O)Nc2ccc3nc(O)cc(C)c3c2)c1` [S72, 5-(diethylsulfamoyl)-N-(2-hydroxy-4-methyl-6-quinolyl)-2-(1-piperidyl)benzamide] had a pIC50 of 6.00 to 6.30.
The compound `Cc1cc(O)nc2ccc(NC(=O)c3cc([N+](=O)[O-])cnc3N3CCCCC3C)cc12` (centres unmarked) [S74, N-(2-hydroxy-4-methyl-6-quinolyl)-2-(2-methyl-1-piperidyl)-5-nitro-pyridine-3-carboxamide] had a pIC50 of 6.00 to 6.30.
As to `O=C1CCc2cc(NC(=O)c3cc([N+](=O)[O-])ccc3N3CCCC3)ccc2N1` [S76, 5-nitro-N-(2-oxo-3,4-dihydro-1H-quinolin-6-yl)-2-pyrrolidin-1-yl-benzamide], the pIC50 is 5.00 to 6.00.
The compound `CN1C(=O)COc2cc(NC(=O)c3cc([N+](=O)[O-])ccc3N3CCCC3)ccc21` [S77, N-(4-methyl-3-oxo-1,4-benzoxazin-7-yl)-5-nitro-2-pyrrolidin-1-yl-benzamide] showed a pIC50 of 5.00 to 6.00.
With `O=C1CCc2cc(NC(=O)c3cc(S(=O)(=O)N4CCOCC4)ccc3N3CCCC3)ccc2N1` [S78, 5-morpholinosulfonyl-N-(2-oxo-3,4-dihydro-1H-quinolin-6-yl)-2-pyrrolidin-1-yl-benzamide] the figure was 5.00 to 6.00.
`CN1C(=O)COc2cc(NC(=O)c3cc(S(=O)(=O)N4CCOCC4)ccc3N3CCCC3)ccc21` [S79, N-(4-methyl-3-oxo-1,4-benzoxazin-7-yl)-5-morpholinosulfonyl-2-pyrrolidin-1-yl-benzamide] showed a pIC50 of 5.00 to 6.00.
`CN1CCN(Cc2ccc(N3CCCC3)c(C(=O)Nc3ccc4c(c3)CCC(=O)N4)c2)CC1` [S80, 5-[(4-methylpiperazin-1-yl)methyl]-N-(2-oxo-3,4-dihydro-1H-quinolin-6-yl)-2-pyrrolidin-1-yl-benzamide] showed a pIC50 of 5.00 to 6.00.
`Cc1cc(O)nc2ccc(NC(=O)c3cc(CN(C)CCO)ccc3N3CCCC3)cc12` [S81, 5-[[2-hydroxyethyl(methyl)amino]methyl]-N-(2-hydroxy-4-methyl-6-quinolyl)-2-pyrrolidin-1-yl-benzamide] showed a negative-log IC50 (pIC50) of over 6.70.
`Cc1cc(O)nc2ccc(NC(=O)c3cc(CNCC4CCCO4)ccc3N3CCCC3)cc12` (centres unmarked) [S82, N-(2-hydroxy-4-methyl-6-quinolyl)-2-pyrrolidin-1-yl-5-[(tetrahydrofuran-2-ylmethylamino)methyl]benzamide] showed a pIC50 of over 6.70.
Take `Cc1cc(O)nc2ccc(NC(=O)c3cc(CN4CCC(N(C)C)C4)ccc3N3CCCC3)cc12` (centres unmarked) [S83, 5-[[3-(dimethylamino)pyrrolidin-1-yl]methyl]-N-(2-hydroxy-4-methyl-6-quinolyl)-2-pyrrolidin-1-yl-benzamide]: the pIC50 is over 6.70.
Compound `Cc1cc(O)nc2ccc(NC(=O)c3cc(CN4CCC(O)C4)ccc3N3CCCC3)cc12` (centres unmarked) [S84, N-(2-hydroxy-4-methyl-6-quinolyl)-5-[(3-hydroxypyrrolidin-1-yl)methyl]-2-pyrrolidin-1-yl-benzamide] showed a pIC50 of over 6.70.
On to `COC[C@@H]1CCCN1Cc1ccc(N2CCCC2)c(C(=O)Nc2ccc3nc(O)cc(C)c3c2)c1` [S85, N-(2-hydroxy-4-methyl-6-quinolyl)-5-[[(2S)-2-(methoxymethyl)pyrrolidin-1-yl]methyl]-2-pyrrolidin-1-yl-benzamide], for which the pIC50 was over 6.70.
In the case of `Cc1cc(O)nc2ccc(NC(=O)c3cc(CN4CCN(CCO)CC4)ccc3N3CCCC3)cc12` [S86, 5-[[4-(2-hydroxyethyl)piperazin-1-yl]methyl]-N-(2-hydroxy-4-methyl-6-quinolyl)-2-pyrrolidin-1-yl-benzamide], the pIC50 is over 6.70.
In turn, `Cc1cc(O)nc2ccc(NC(=O)c3cc(CN4CCCN(C)CC4)ccc3N3CCCC3)cc12` [S87, N-(2-hydroxy-4-methyl-6-quinolyl)-5-[(4-methyl-1,4-diazepan-1-yl)methyl]-2-pyrrolidin-1-yl-benzamide] gave a pIC50 of over 6.70.
`COC1CCN(Cc2ccc(N3CCCC3)c(C(=O)Nc3ccc4nc(O)cc(C)c4c3)c2)C1` (centres unmarked) [S88, N-(2-hydroxy-4-methyl-6-quinolyl)-5-[(3-methoxypyrrolidin-1-yl)methyl]-2-pyrrolidin-1-yl-benzamide]: the pIC50 was over 6.70.
With `Cc1cc(O)nc2ccc(NC(=O)c3cc(CN4CC(O)C4)ccc3N3CCCC3)cc12` [S89, 5-[(3-hydroxyazetidin-1-yl)methyl]-N-(2-hydroxy-4-methyl-6-quinolyl)-2-pyrrolidin-1-yl-benzamide] the figure was over 6.70.
The compound `COCC1CN(Cc2ccc(N3CCCC3)c(C(=O)Nc3ccc4nc(O)cc(C)c4c3)c2)C1` [S90, N-(2-hydroxy-4-methyl-6-quinolyl)-5-[[3-(methoxymethyl)azetidin-1-yl]methyl]-2-pyrrolidin-1-yl-benzamide] showed a pIC50 of over 6.70.
In turn, `COCC1CCCN(Cc2ccc(N3CCCC3)c(C(=O)Nc3ccc4nc(O)cc(C)c4c3)c2)C1` (centres unmarked) [S91, N-(2-hydroxy-4-methyl-6-quinolyl)-5-[[3-(methoxymethyl)-1-piperidyl]methyl]-2-pyrrolidin-1-yl-benzamide] gave a pIC50 of over 6.70.
With `Cc1cc(O)nc2ccc(NC(=O)c3cc(CN4CCOCC4)cnc3N3CCC(C)C3)cc12` (centres unmarked) [S93, N-(2-hydroxy-4-methyl-6-quinolyl)-2-(3-methylpyrrolidin-1-yl)-5-(morpholinomethyl)pyridine-3-carboxamide] the figure was over 6.70.
Compound `Cc1cc(O)nc2ccc(NC(=O)c3cc(CN4CCOCC4)cnc3N3CCCC3C)cc12` (centres unmarked) [S94, N-(2-hydroxy-4-methyl-6-quinolyl)-2-(2-methylpyrrolidin-1-yl)-5-(morpholinomethyl)pyridine-3-carboxamide] gave a pIC50 of 6.30 to 6.70.
The result for `Cc1cc(O)nc2ccc(NC(=O)c3cc(CN4CCOCC4)cnc3N3CCC(C)(F)C3)cc12` (centres unmarked) [S97, 2-(3-fluoro-3-methyl-pyrrolidin-1-yl)-N-(2-hydroxy-4-methyl-6-quinolyl)-5-(morpholinomethyl)pyridine-3-carboxamide] reads 6.30 to 6.70; that for `Cc1cc(O)nc2ccc(NC(=O)c3cc(CN4CCOCC4)cnc3N3CCC(C(N)=O)C3)cc12` (centres unmarked) [S98, 2-(3-carbamoylpyrrolidin-1-yl)-N-(2-hydroxy-4-methyl-6-quinolyl)-5-(morpholinomethyl)pyridine-3-carboxamide], 6.00 to 6.30.
With `Cc1cc(O)nc2ccc(NC(=O)c3cc(CN4CCOCC4)cnc3N3CCC(CC(C)C)C3)cc12` (centres unmarked) [S101, N-(2-hydroxy-4-methyl-6-quinolyl)-2-(3-isobutylpyrrolidin-1-yl)-5-(morpholinomethyl)pyridine-3-carboxamide] the figure was 5.00 to 6.00; with `Cc1cc(O)nc2ccc(NC(=O)c3cc(CN4CCOCC4)cnc3N3CCC(N4CCCC4)C3)cc12` (centres unmarked) [S107, N-(2-hydroxy-4-methyl-6-quinolyl)-5-(morpholinomethyl)-2-(3-pyrrolidin-1-ylpyrrolidin-1-yl)pyridine-3-carboxamide], 5.00 to 6.00; with `Cc1cc(O)nc2ccc(NC(=O)c3cc(CN4CCOCC4)cnc3N3CCCC3C(=O)N(C)C)cc12` (centres unmarked) [S109, 2-[2-(dimethylcarbamoyl)pyrrolidin-1-yl]-N-(2-hydroxy-4-methyl-6-quinolyl)-5-(morpholinomethyl)pyridine-3-carboxamide], 6.00 to 6.30.
With `Cc1cc(O)nc2ccc(NC(=O)c3cc(CN4CCOCC4)cnc3N3CCC(c4ccncc4)C3)cc12` (centres unmarked) [S111, N-(2-hydroxy-4-methyl-6-quinolyl)-5-(morpholinomethyl)-2-[3-(4-pyridyl)pyrrolidin-1-yl]pyridine-3-carboxamide] the figure was 6.00 to 6.30; with `Cc1cc(O)nc2ccc(NC(=O)c3cc(CN4CCOCC4)cnc3N3CCOC(CO)C3)cc12` (centres unmarked) [S114, 2-[2-(hydroxymethyl)morpholin-4-yl]-N-(2-hydroxy-4-methyl-6-quinolyl)-5-(morpholinomethyl)pyridine-3-carboxamide], under 5.00; with `Cc1cc(O)nc2ccc(NC(=O)c3cc(CN4CCOCC4)cnc3N3CC(CO)OCC3C)cc12` (centres unmarked) [S115, 2-[2-(hydroxymethyl)-5-methyl-morpholin-4-yl]-N-(2-hydroxy-4-methyl-6-quinolyl)-5-(morpholinomethyl)pyridine-3-carboxamide], under 5.00.
Take `Cc1cc(O)nc2ccc(NC(=O)c3cc(CN4CCOCC4)cnc3N3CCOC(CN(C)C)C3)cc12` (centres unmarked) [S117, 2-[2-(dimethylaminomethyl)morpholin-4-yl]-N-(2-hydroxy-4-methyl-6-quinolyl)-5-(morpholinomethyl)pyridine-3-carboxamide]: the pIC50 is under 5.00.
As for `Cc1cc(O)nc2ccc(NC(=O)c3cc(CN4CCOCC4)cnc3N3CCC(CO)C3)cc12` (centres unmarked) [S118, 2-[3-(hydroxymethyl)pyrrolidin-1-yl]-N-(2-hydroxy-4-methyl-6-quinolyl)-5-(morpholinomethyl)pyridine-3-carboxamide], the pIC50 is under 5.00.

Source of the values: patent US10752640B2, “Compounds active towards bromodomains” (NUEVOLUTION A/S, priority 2014, dated 2020).
